Experimental data reported in publication PMC7887755, “Structure–Activity Relationships of Pyrazolo[1,5-a]pyrimidin-7(4H)-ones as Antitubercular Agents” (ACS Infectious Diseases, 2021).
In brackets after ≈: the same amount, converted by molar mass. Several values for one entry are separate records, joined by “and”; a condition that tells them apart may be missing. Equal values may be shown once. Read-outs that look alike come from different tables or passages of the source.

Key:
Mtb H37Rv [1] = assay: microbe, parasite or virus in culture; type: cell-based, Mycobacterium tuberculosis
HepG2 cells = conditions: 24 h
Mtb H37Rv WT = assay: microbe, parasite or virus in culture; type: cell-based; conditions: Mycobacterium tuberculosis
Mtb H37Rv [2] = assay: MIC under iron-depleted (DFO) or iron-replete (FeCl3) conditions; type: cell-based, Mycobacterium tuberculosis
[3] = system: DNA damage responsive recA and radA reporters; type: cell-based, Mycobacterium tuberculosis
Mtb strain H37Rv = assay: MIC against Mtb H37Rv under various media/carbon sources; type: cell-based; conditions: Mycobacterium tuberculosis
[4] = system: cell wall responsive iniBAC promoter (piniB-LUX reporter strain); type: cell-based, Mycobacterium tuberculosis
in vitro = conditions: human, 24 h
[5] = read-out: Cytotoxicity (IC50) Galactose, HepG2 cells in DMEM/10% FBS with galactose
[6] = read-out: Cytotoxicity (IC50) Glucose, HepG2 cells in DMEM/10% FBS supplemented with glucose
[7] = Mycobacterium tuberculosis, H37RV, read-out: MIC in 7H9 ADC
[8] = Mycobacterium tuberculosis, H37RV, read-out: MIC in 7H9 GCas
[9] = pH 6, read-out: MIC nitrate/butyrate

In the case of “2-Methyl-3-phenyl-5-(pyrazin-2-yl)pyrazolo[1,5-a]pyrimidin-7(4H)-one [Compound P15]”, the MIC (Mtb H37Rv [1]; read-out: MIC in 7H9 ADC) is reported as 50.0 µM and 50 µM, the MIC (Mtb H37Rv [1]; read-out: MIC in 7H9 GCas) is reported as 12.5 µM and the IC50 (HepG2 cells; [5]) is reported as over 100 µM. For the same compound, the IC50 (HepG2 cells; [6]) was over 100 µM.

With “2-Methyl-3-phenyl-5-(pyridin-3-yl)pyrazolo[1,5-a]pyrimidin-7(4H)-one [Compound P13]” the MIC (Mtb H37Rv [1]; read-out: MIC in 7H9 ADC) was 50.0 µM and 50 µM, the MIC (Mtb H37Rv [1]; read-out: MIC in 7H9 GCas) was 12.5 µM and the IC50 (HepG2 cells; [5]) was over 100 µM. For the same compound, the IC50 (HepG2 cells; [6]) was over 100 µM.

Compound “5-(2-Fluorophenyl)-2-methyl-3-phenylpyrazolo[1,5-a]pyrimidin-7(4H)-one [Compound P16]” has an MIC (Mtb H37Rv [1]; read-out: MIC in 7H9 ADC) of 12.5 µM, an MIC (Mtb H37Rv [1]; read-out: MIC in 7H9 GCas) of 3.12 µM and an IC50 (HepG2 cells; [5]) of over 100 µM. For the same compound, the IC50 (HepG2 cells; [6]) was over 100 µM.

Work on “5-(3-Fluorophenyl)-2-methyl-3-phenylpyrazolo[1,5-a]pyrimidin-7(4H)-one [Compound P17]” yielded an MIC (Mtb H37Rv [1]; read-out: MIC in 7H9 ADC) of 6.25 µM, an MIC (Mtb H37Rv [1]; read-out: MIC in 7H9 GCas) of 1.56 µM and an IC50 (HepG2 cells; [5]) of 93.8 µM. For the same compound, the IC50 (HepG2 cells; [6]) was over 100 µM.

Work on “5-(4-Fluorophenyl)-2-methyl-3-phenylpyrazolo[1,5-a]pyrimidin-7(4H)-one [Compound P18]” yielded an MIC (Mtb H37Rv [1]; read-out: MIC in 7H9 ADC) of 6.25 µM, an MIC (Mtb H37Rv [1]; read-out: MIC in 7H9 GCas) of 1.56 µM and an IC50 (HepG2 cells; [5]) of over 100 µM. It also gave an IC50 (HepG2 cells; [6]) of over 100 µM.

In the case of “5-(Furan-3-yl)-2-methyl-3-phenylpyrazolo[1,5-a]pyrimidin-7(4H)-one [Compound P14]”, the MIC (Mtb H37Rv [1]; read-out: MIC in 7H9 ADC) is reported as 25.0 µM and 25 µM, the MIC (Mtb H37Rv [1]; read-out: MIC in 7H9 GCas) is reported as 3.12 µM and the IC50 (HepG2 cells; [5]) is reported as over 100 µM. The IC50 (HepG2 cells; [6]) was over 100 µM.

In the case of “5-Cyclohexyl-2-methyl-3-phenylpyrazolo[1,5-a]pyrimidin-7(4H)-one [Compound P11]”, the MIC (Mtb H37Rv [1]; read-out: MIC in 7H9 ADC) is reported as over 100 µM, the MIC (Mtb H37Rv [1]; read-out: MIC in 7H9 GCas) is reported as over 100 µM and the IC50 (HepG2 cells; [5]) is reported as over 100 µM. For the same compound, the IC50 (HepG2 cells; [6]) was over 100 µM.

“5-Isobutyl-2-methyl-3-phenylpyrazolo[1,5-a]pyrimidin-7(4H)-one [Compound P12]” showed an MIC (Mtb H37Rv [1]; read-out: MIC in 7H9 ADC) of 100 µM, an MIC (Mtb H37Rv [1]; read-out: MIC in 7H9 GCas) of 12.5 µM and an IC50 (HepG2 cells; [5]) of over 100 µM. It also gave an IC50 (HepG2 cells; [6]) of over 100 µM.

In the case of O=c1cc(CC2CCCCC2)[nH]c2c(-c3ccc(Cl)cc3)cnn12 [Compound 2, 3-(4-Chlorophenyl)-5-(cyclohexylmethyl)pyrazolo[1,5-a]pyrimidin-7(4H)-one, reference compound], the MIC (Mtb H37Rv WT) is reported as 0.39 µM (≈ 0.133 µg/mL), the MIC (Mtb H37Rv [1]; [7]) is reported as 9.38 µM (≈ 3.21 µg/mL) and the MIC (Mtb H37Rv [1]; [8]) is reported as 0.78 µM (≈ 0.267 µg/mL). The “increase in potency under iron-depleted conditions (MIC ratio)” value (Mtb H37Rv [2]) was “greater efficacy under iron-limited conditions”, the “reporter gene assay DNA damage” value [3] was “no” and the MIC (Mtb strain H37Rv; GAST/Fe, read-out: MIC GAST) was 19 µM (≈ 6.49 µg/mL). It also gave an MIC (Mtb strain H37Rv; [9]) of 6.25 µM (≈ 2.14 µg/mL), an MIC (Mtb strain H37Rv; read-out: MIC 7H9) of 19 µM (≈ 6.49 µg/mL) and an MIC (Mtb strain H37Rv; read-out: MIC Chol) of 12.5 µM (≈ 4.27 µg/mL). For the same compound, the MIC (Mtb strain H37Rv; read-out: MIC GBSA/DBSA) was 4.7 µM (≈ 1.61 µg/mL) and the “reporter gene assay cell wall” value [4] was “no”.

COc1ccc(-c2cc(=O)n3nc(C)c(-c4ccc(F)cc4)c3[nH]2)cc1 [Compound 4, 3-(4-Fluorophenyl)-5-(4-methoxyphenyl)-2-methylpyrazolo[1,5-a]pyrimidin-7(4H)-one, reference compound] gave an MIC (Mtb H37Rv WT) of 1.56 µM (≈ 0.545 µg/mL), an MIC (Mtb H37Rv [1]; [7]) of 9.38 µM (≈ 3.28 µg/mL) and an MIC (Mtb H37Rv [1]; [8]) of 3.12 µM (≈ 1.09 µg/mL). The “increase in potency under iron-depleted conditions (MIC ratio)” value (Mtb H37Rv [2]) was at most 2 fold, the “reporter gene assay DNA damage” value [3] was “no” and the MIC (Mtb strain H37Rv; GAST/Fe, read-out: MIC GAST) was 3.13 µM (≈ 1.09 µg/mL). The MIC (Mtb strain H37Rv; [9]) was 6.25 µM (≈ 2.18 µg/mL), the MIC (Mtb strain H37Rv; read-out: MIC 7H9) was 12.5 µM (≈ 4.37 µg/mL) and the MIC (Mtb strain H37Rv; read-out: MIC Chol) was 12.5 µM (≈ 4.37 µg/mL). For the same compound, the MIC (Mtb strain H37Rv; read-out: MIC GBSA/DBSA) was 9.4 µM (≈ 3.28 µg/mL) and the “reporter gene assay cell wall” value [4] was “no”.

With COc1cc(-c2ccccc2)nc2c(-c3ccccc3)c(C)nn12 [Compound P1, 7-Methoxy-2-methyl-3,5-diphenylpyrazolo[1,5-a]pyrimidine] the MIC (Mtb H37Rv [1]; [7]) was 100 µM (≈ 31.5 µg/mL) and the MIC (Mtb H37Rv [1]; [8]) was over 100 µM.

Cc1nn2c(=O)cc(-c3ccccc3)n(C)c2c1-c1ccccc1 [Compound P2, 2,4-Dimethyl-3,5-diphenylpyrazolo[1,5-a]pyrimidin-7(4H)-one] gave an MIC (Mtb H37Rv [1]; [7]) of over 100 µM, an MIC (Mtb H37Rv [1]; [8]) of 50 µM (≈ 15.8 µg/mL) and an MIC (Mtb H37Rv [1]; read-out: MIC in 7H9 GCas) of 50 µM (≈ 15.8 µg/mL).

Compound O=c1[nH]n2c(=O)cc(-c3ccccc3)[nH]c2c1-c1ccccc1 [Compound P3, 3,5-Diphenylpyrazolo[1,5-a]pyrimidine-2,7(1H,4H)-dione] has an MIC (Mtb H37Rv [1]; [7]) of over 100 µM and an MIC (Mtb H37Rv [1]; [8]) of over 100 µM.

For Nc1nn2c(=O)cc(-c3ccccc3)[nH]c2c1-c1ccccc1 [Compound P4, 2-Amino-3,5-diphenylpyrazolo[1,5-a]pyrimidin-7(4H)-one], the MIC (Mtb H37Rv [1]; [7]) was 28.1 µM (≈ 8.5 µg/mL), the MIC (Mtb H37Rv [1]; [8]) was 25 µM (≈ 7.56 µg/mL) and the MIC (Mtb H37Rv [1]; read-out: MIC in 7H9 GCas) was 25 µM (≈ 7.56 µg/mL).

Work on Cc1nn2c(=O)nc(-c3ccccc3)[nH]c2c1-c1ccccc1 [Compound P5, 7-Methyl-2,8-diphenylpyrazolo[1,5-a][1,3,5]triazin-4(1H)-one] yielded an MIC (Mtb H37Rv [1]; [7]) of over 100 µM, an MIC (Mtb H37Rv [1]; [8]) of 50 µM (≈ 15.1 µg/mL) and an MIC (Mtb H37Rv [1]; read-out: MIC in 7H9 GCas) of 50 µM (≈ 15.1 µg/mL).

Cc1nn2c(=O)c(C)c(-c3ccccc3)[nH]c2c1-c1ccccc1 [Compound P6, 2,6-Dimethyl-3,5-diphenylpyrazolo[1,5-a]pyrimidin-7(4H)-one] gave an MIC (Mtb H37Rv [1]; [7]) of 43.8 µM (≈ 13.8 µg/mL), an MIC (Mtb H37Rv [1]; [8]) of 3.12 µM (≈ 0.984 µg/mL) and an IC50 (in vitro; Cytotoxicity (IC50) Galactose, HepG2 cells in DMEM/10% FBS with galactose) of over 100 µM. The IC50 (in vitro; Cytotoxicity (IC50) Glucose, HepG2 cells in DMEM/10% FBS supplemented with glucose) was over 100 µM.
